Source: ChEMBL document CHEMBL1143450, “Potential metabolites of a condensed 2,3-benzodiazepine derivative” (Bioorg Med Chem Lett, 2005)
Blank lines part the entries; values can stand above or below the compound they belong to.

Tests used:
Mus musculus [1] = assay: Effective p.o. dose tested for anticonvulsant activity using maximal electroshock seizure model in mouse (value range= 17.9-32.1 mg/kg); settings: po
Mus musculus [2] = assay: Effective i.p. dose tested for muscle relaxant activity using inclined screen test in mouse (value range= 29.4-45.2 mg/kg); settings: ip
Gallus gallus [3] = species: Gallus gallus; assay: Evaluated for inhibition of AMPA (5 uM) evoked spreading depression in isolated retina prepared from young chicken; format: functional
Mus musculus [4] = assay: Effective i.p. dose tested for muscle relaxant activity using inclined screen test in mouse (value range=100-200 mg/kg); settings: ip
Mus musculus [5] = assay: Effective p.o. dose tested for anticonvulsant activity using maximal electroshock seizure model in mouse (value range=25-50 mg/kg); settings: po
Gallus gallus [6] = species: Gallus gallus; assay: Evaluated for inhibition of AMPA (5 uM) evoked spreading depression in isolated retina prepared from young chicken at 20 uM; format: functional
Mus musculus [7] = assay: Effective i.p. dose tested for muscle relaxant activity using inclined screen test in mouse (highest test concentration); settings: ip
Mus musculus [8] = assay: Effective p.o. dose tested for anticonvulsant activity using maximal electroshock seizure model in mouse (highest test concentration); settings: po
Mus musculus [9] = assay: as above; settings: po; remark: listed apart in the source
Mus musculus [10] = assay: Effective p.o. dose tested for anticonvulsant activity using maximal electroshock seizure model in mouse (SMA); settings: po
Mus musculus [11] = assay: Effective p.o. dose tested for anticonvulsant activity using maximal electroshock seizure model in mouse; settings: po
Mus musculus [12] = assay: Effective p.o. dose tested for anticonvulsant activity using maximal electroshock seizure model in mouse (high test concentration); settings: po
Mus musculus [13] = assay: Effective i.p. dose tested for muscle relaxant activity using inclined screen test in mouse (value range= 11.2-16.0 mg/kg); settings: ip

- IC50 (Gallus gallus [3]): 5 µM
SMILES: Nc1ccc(C2=Nn3cc(CO)nc3Cc3ccc(Cl)cc32)cc1
- ED50 (Mus musculus [4]): 200 mg/kg
- ED50 (Mus musculus [5]): 50 mg/kg

- IC50 (Gallus gallus [3]): > 20 µM
SMILES: CC(=O)Nc1ccc(C2=Nn3cc(C)nc3Cc3ccc(Cl)cc32)cc1
- ED50 (Mus musculus [11]): 56 mg/kg
- ED50 (Mus musculus [7]): > 200 mg/kg

- IC50 (Gallus gallus [3]): 20 µM
SMILES: CCOC(=O)c1cn2c(n1)Cc1ccc(Cl)cc1C(c1ccc(N)cc1)=N2
- ED50 (Mus musculus [12]): > 100 mg/kg
- ED50 (Mus musculus [7]): > 200 mg/kg

Further lines, the compound ahead of its results:

SMILES: Cc1cn2c(n1)Cc1ccc(Cl)cc1C(c1ccc(N)cc1)=N2
- ED50 (Mus musculus [1]): 24 mg/kg
- ED50 (Mus musculus [2]): 36.5 mg/kg
- IC50 (Gallus gallus [3]): 7.3 µM

SMILES: CC(=O)Nc1ccc(C2=Nn3cc(C(=O)O)nc3Cc3ccc(Cl)cc32)cc1
- Inhibition (Gallus gallus [6]): 33%
- ED50 (Mus musculus [7]): > 200 mg/kg
- ED50 (Mus musculus [8]): > 100 mg/kg

SMILES: Nc1ccc(C2=Nn3cc(C(=O)O)nc3Cc3ccc(Cl)cc32)cc1
- ED50 (Mus musculus [9]): > 100 mg/kg
- Inhibition (Gallus gallus [6]): 55%
- ED50 (Mus musculus [7]): > 200 mg/kg

SMILES: CC(=O)Nc1ccc(C2=Nn3cc(CO)nc3Cc3ccc(Cl)cc32)cc1
- ED50 (Mus musculus [10]): > 100 mg/kg

SMILES: CC(=O)N1N=C(c2ccc(N)cc2)c2cc3c(cc2C[C@H]1C)OCO3 [TALAMPANEL]
- ED50 (Mus musculus [13]): 13.4 mg/kg
